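Interpolation was linear, between the two tested concentrations surrounding the appropriate level; five concentrations were tested over 48 hours in 96-well plates. GI50 marks 50% less growth.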 Activity calls are given as the source filed them. Cut-off read from the data, not from the text of the source: active = GI50 up to about 1.1 µM and inactive = higher.
Columns and labels:
Test in all cases: inhibition of tumour cell growth, NCI panel, 48 h
[1] = test system: SW-620
[2] = test system: ACHN
[3] = test system: TK-10
[4] = test system: UACC-257
[5] = test system: UACC-62
[6] = test system: SK-OV-3
[7] = test system: OVCAR-4
[8] = test system: UO-31
[9] = test system: SN12C
[10] = test system: M14
[11] = test system: OVCAR-3
[12] = test system: SR
[13] = test system: OVCAR-8
[14] = test system: SK-MEL-5
[15] = test system: Hs-578T
[16] = test system: CCRF-CEM
[17] = test system: MDA-N
[18] = test system: HOP-62
[19] = test system: PC-3

SMILES | GI50 [1] | GI50 [2] | GI50 [3] | GI50 [4] | GI50 [5] | GI50 [6] | GI50 [7] | GI50 [8] | GI50 [9] | GI50 [10] | GI50 [11] | GI50 [12] | GI50 [13] | GI50 [14] | GI50 [15] | GI50 [16] | GI50 [17] | GI50 [18] | GI50 [19]
CC(C(=O)N1c2ccccc2Sc2ccccc21)N1c2ccccc2Sc2ccccc21 (stereo not given) | > 100 µM (inactive) | > 100 µM (inactive) | > 100 µM (inactive) | > 100 µM (inactive) | > 100 µM (inactive) | > 100 µM (inactive) | > 100 µM (inactive) | 70.1 µM (inactive) | > 100 µM (inactive) | > 100 µM (inactive) | 55 µM (inactive) | > 100 µM (inactive) | 97.1 µM (inactive) | 57.5 µM (inactive) | > 100 µM (inactive) | 57.1 µM (inactive) | > 100 µM (inactive) | > 100 µM (inactive) | 97.5 µM (inactive)
C=CCN1C(=O)/C(=C/c2ccc(OC)cc2)NC1=S | > 100 µM (inactive) | > 100 µM (inactive) | > 100 µM (inactive) | 27.9 µM (inactive) | 97.7 µM (inactive) | > 100 µM (inactive) | 54.5 µM (inactive) | 61.4 µM (inactive) | > 100 µM (inactive) | 53.3 µM (inactive) | > 100 µM (inactive) | 29.3 µM (inactive) | 25.7 µM (inactive) | 30.5 µM (inactive) | > 100 µM (inactive) | < 0.01 µM (active) | 33.8 µM (inactive) | > 100 µM (inactive) | 84.5 µM (inactive)
O=c1[nH]nc(Cc2ccccc2)n1C1CCCC1 | > 100 µM (inactive) | > 100 µM (inactive) | > 100 µM (inactive) | > 100 µM (inactive) | > 100 µM (inactive) | > 100 µM (inactive) | > 100 µM (inactive) | > 100 µM (inactive) | > 100 µM (inactive) | > 100 µM (inactive) | > 100 µM (inactive) | > 100 µM (inactive) | > 100 µM (inactive) | > 100 µM (inactive) | > 100 µM (inactive) | > 100 µM (inactive) | > 100 µM (inactive) | > 100 µM (inactive) | > 100 µM (inactive)
CC1C2C=CC1C(c1c3ccc(=O)c(O)c-3oc3c(O)c(O)ccc13)C2C(=O)O (stereo not given) | 34.3 µM (inactive) | 53.5 µM (inactive) | > 100 µM (inactive) | > 100 µM (inactive) | > 100 µM (inactive) | > 100 µM (inactive) | 78.9 µM (inactive) | > 100 µM (inactive) | 24 µM (inactive) | > 100 µM (inactive) | > 100 µM (inactive) | 33.9 µM (inactive) | > 100 µM (inactive) | 91.6 µM (inactive) | 89.5 µM (inactive) | 1.01 µM (active) | 21.4 µM (inactive) | > 100 µM (inactive) | > 100 µM (inactive)
CN(C)c1n/c(=N/Cc2cccs2)ss1 | > 10 µM (inactive) | > 10 µM (inactive) | > 10 µM (inactive) | > 10 µM (inactive) | > 10 µM (inactive) | > 10 µM (inactive) | > 10 µM (inactive) | > 10 µM (inactive) | > 10 µM (inactive) | > 10 µM (inactive) | > 10 µM (inactive) | 0.573 µM (active) | > 10 µM (inactive) | > 10 µM (inactive) | > 10 µM (inactive) | 0.173 µM (active) | > 10 µM (inactive) | > 10 µM (inactive) | > 10 µM (inactive)
